Test results: US5416191A, “Bradykinin antagonists” (Cortech, Inc., priority 1993, dated 1995)
Where two headings read alike, the source gives them in different places. Square brackets hold non-standard residues; d marks the D form. Peptide text beside a SMILES is read from it. * marks the point of attachment. Hyp = O=C(O)[C@@H]1C[C@@H](O)CN1; X8 = O=C1CC(*)C(=O)N1

How the values were obtained:
[1] = biological target: T1, bradykinin receptor of the B2 class (guinea-pig ileum) (Cavia porcellus, UniProt O70526)
T1 sequence (O70526 1-372): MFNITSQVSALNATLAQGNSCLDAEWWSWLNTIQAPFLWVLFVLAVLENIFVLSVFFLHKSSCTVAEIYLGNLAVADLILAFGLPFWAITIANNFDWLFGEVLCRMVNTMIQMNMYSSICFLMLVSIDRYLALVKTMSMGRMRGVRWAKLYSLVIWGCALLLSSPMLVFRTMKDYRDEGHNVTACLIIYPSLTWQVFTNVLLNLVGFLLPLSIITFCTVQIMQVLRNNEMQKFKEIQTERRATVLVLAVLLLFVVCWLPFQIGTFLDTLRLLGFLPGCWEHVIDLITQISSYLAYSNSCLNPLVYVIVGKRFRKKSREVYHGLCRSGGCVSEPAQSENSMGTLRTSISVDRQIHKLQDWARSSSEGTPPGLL

[2] = biological target: T2, bradykinin receptor of the B2 class (rat uterus) (Rattus norvegicus, UniProt P25023); assay: Rat uterus (RU) in vitro, antagonism of bradykinin
T2 construct: concentration effect curves to bradykinin (BK) on rat uterus in vitro; from tissue; host or cells: rat uterus
T2 sequence (P25023 1-396): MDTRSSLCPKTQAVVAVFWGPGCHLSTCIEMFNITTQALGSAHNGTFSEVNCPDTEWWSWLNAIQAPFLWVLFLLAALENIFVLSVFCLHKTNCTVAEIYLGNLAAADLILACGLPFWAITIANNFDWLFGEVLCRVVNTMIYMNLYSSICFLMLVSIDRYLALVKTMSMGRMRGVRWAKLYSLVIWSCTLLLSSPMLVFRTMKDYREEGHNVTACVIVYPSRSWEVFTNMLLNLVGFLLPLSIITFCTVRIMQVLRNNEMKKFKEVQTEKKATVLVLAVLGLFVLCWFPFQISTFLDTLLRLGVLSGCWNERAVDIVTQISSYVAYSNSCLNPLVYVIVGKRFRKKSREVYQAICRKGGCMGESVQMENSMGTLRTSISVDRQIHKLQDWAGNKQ
Procedure: Thus in vitro studies were performed on standard assay systems, namely, guinea-pig ileum (GPI), rat uterus (RU) and rabbit jugular vein (RJV). […] The PA2 can be defined as the negative logarithm of the molar concentration of the antagonist in the presence of which the potency of the agonist is reduced two-fold, i.e. twice the amount of agonist is required to produce a given response in the presence of, than in the absence of, the antagonist. A high potency of antagonism is indicated by a high PA2 value, i.e., a low concentration of antagonist is effective.
The percentage recovery (% Rec) was also determined for compounds with respect to each assay.
With respect to duration of activity, it is noted that after exposure to the highest concentration of antagonist, each tissue was washed extensively and then assessed for recovery from the antagonist effect.
Potency in the rat uterus assay was assessed as described above and PA2 values determined.

[3] = Table C, rat uterus, P.A. = Partial Agonist, read-out: pA2 MONOMER (converted)
[4] = Table C, rat uterus, read-out: pA2 DIMER (converted)

`CC(C)C[C@H](NC(=O)[C@@H](Cc1ccccc1)NC(=O)[C@H](CSSC[C@H](NC(=O)[C@H](Cc1ccccc1)NC(=O)CNC(=O)[C@@H]1C[C@@H](O)CN1C(=O)[C@@H]1CCCN1C(=O)[C@H](CCCNC(=N)N)NC(=O)[C@H](N)CCCNC(=N)N)C(=O)N[C@H](Cc1ccccc1)C(=O)N[C@@H](CC(C)C)C(=O)N[C@@H](CCCNC(=N)N)C(=O)O)NC(=O)[C@H](Cc1ccccc1)NC(=O)CNC(=O)[C@@H]1C[C@@H](O)CN1C(=O)[C@@H]1CCCN1C(=O)[C@H](CCCNC(=N)N)NC(=O)[C@H](N)CCCNC(=N)N)C(=O)N[C@@H](CCCNC(=N)N)C(=O)O` [CP-0138] (HELM PEPTIDE1{[dR].R.P.[Hyp].G.F.C.[dF].L.R}|PEPTIDE2{[dR].R.P.[Hyp].G.F.C.[dF].L.R}$PEPTIDE1,PEPTIDE2,7:R3-7:R3$$$V2.0) was tested, and the Kb [1] was ~631 nM, the “RAT UTERUS % RECOVERED” value ([2]; Table E) was 100% and the Kb ([2]; Table E, read-out: RAT UTERUS pA2 (converted)) was 39.8 nM.

For `CC(C)C[C@H](NC(=O)[C@@H](Cc1ccccc1)NC(=O)[C@H](CSC1CC(=O)NC1=O)NC(=O)[C@H](Cc1ccccc1)NC(=O)CNC(=O)[C@@H]1C[C@@H](O)CN1C(=O)[C@@H]1CCCN1C(=O)[C@H](CCCNC(=N)N)NC(=O)[C@H](N)CCCNC(=N)N)C(=O)N[C@@H](CCCNC(=N)N)C(=O)O` (stereo partly shown) [CP-0139] (H-[dR]RP[Hyp]GFC(X8)[dF]LR-OH), the Kb [1] was ~79.4 nM.

For `CC(C)C[C@H](NC(=O)[C@@H](Cc1ccccc1)NC(=O)[C@H](CO)NC(=O)[C@H](Cc1ccccc1)NC(=O)CNC(=O)[C@@H]1C[C@@H](O)CN1C(=O)[C@@H]1CCCN1C(=O)[C@H](CCCNC(=N)N)NC(=O)[C@@H](N)CS)C(=O)N[C@@H](CCCNC(=N)N)C(=O)O` [CP-0140] (HELM PEPTIDE1{C.R.P.[Hyp].G.F.S.[dF].L.R}$$$$V2.0), the Kb [1] was ~316 nM, the “% REC MONOMER” value ([2]; Table C, rat uterus) was 50% and the Kb [2, 3] was 100 nM.

`CC(C)C[C@H](NC(=O)[C@@H](Cc1ccccc1)NC(=O)[C@H](CO)NC(=O)[C@H](Cc1ccccc1)NC(=O)CNC(=O)[C@@H]1C[C@@H](O)CN1C(=O)[C@@H]1CCCN1C(=O)[C@H](CS)NC(=O)[C@H](N)CCCNC(=N)N)C(=O)N[C@@H](CCCNC(=N)N)C(=O)O` [CP-0141] (HELM PEPTIDE1{[dR].C.P.[Hyp].G.F.S.[dF].L.R}$$$$V2.0) showed a Kb [1] of ~1000 nM.

With `CC(C)C[C@H](NC(=O)[C@@H](Cc1ccccc1)NC(=O)[C@H](CO)NC(=O)[C@H](Cc1ccccc1)NC(=O)CNC(=O)[C@@H]1C[C@@H](O)CN1C(=O)[C@H](CS)NC(=O)[C@H](CCCNC(=N)N)NC(=O)[C@H](N)CCCNC(=N)N)C(=O)N[C@@H](CCCNC(=N)N)C(=O)O` [CP-0142] (HELM PEPTIDE1{[dR].R.C.[Hyp].G.F.S.[dF].L.R}$$$$V2.0) the Kb [1] was ~2000 nM, the “% REC MONOMER” value ([2]; Table C, rat uterus) was 80% and the Kb [2, 3] was 398 nM.

`CC(C)C[C@H](NC(=O)[C@@H](Cc1ccccc1)NC(=O)[C@H](CO)NC(=O)[C@H](Cc1ccccc1)NC(=O)CNC(=O)[C@H](CS)NC(=O)[C@@H]1CCCN1C(=O)[C@H](CCCNC(=N)N)NC(=O)[C@H](N)CCCNC(=N)N)C(=O)N[C@@H](CCCNC(=N)N)C(=O)O` [CP-0143] (HELM PEPTIDE1{[dR].R.P.C.G.F.S.[dF].L.R}$$$$V2.0) was tested, and the Kb [1] was ~316 nM and the “pA2 MONOMER” value ([2]; Table C, rat uterus, P.A. = Partial Agonist) was “P.A”.

With `CC(C)C[C@H](NC(=O)[C@@H](Cc1ccccc1)NC(=O)[C@H](CO)NC(=O)[C@H](CS)NC(=O)CNC(=O)[C@@H]1C[C@@H](O)CN1C(=O)[C@@H]1CCCN1C(=O)[C@H](CCCNC(=N)N)NC(=O)[C@H](N)CCCNC(=N)N)C(=O)N[C@@H](CCCNC(=N)N)C(=O)O` [CP-0144] (HELM PEPTIDE1{[dR].R.P.[Hyp].G.C.S.[dF].L.R}$$$$V2.0) the Kb [1] was ~501 nM, the “% REC MONOMER” value ([2]; Table C, rat uterus) was 95% and the Kb [2, 3] was 63.1 nM.

`CC(C)C[C@H](NC(=O)[C@@H](Cc1ccccc1)NC(=O)[C@H](CO)NC(=O)[C@H](Cc1ccccc1)NC(=O)CNC(=O)[C@@H]1C[C@@H](O)CN1C(=O)[C@@H]1CCCN1C(=O)[C@H](CCCNC(=N)N)NC(=O)[C@H](N)CS)C(=O)N[C@@H](CCCNC(=N)N)C(=O)O` [CP-0149] (HELM PEPTIDE1{[dC].R.P.[Hyp].G.F.S.[dF].L.R}$$$$V2.0) was tested, and the Kb [1] was ~501 nM, the “% REC MONOMER” value ([2]; Table C, rat uterus) was 75% and the Kb [2, 3] was 79.4 nM.

With `CC(C)C[C@H](NC(=O)[C@@H](Cc1ccccc1)NC(=O)[C@H](CO)NC(=O)[C@H](Cc1ccccc1)NC(=O)CNC(=O)[C@@H]1C[C@@H](O)CN1C(=O)[C@@H]1CCCN1C(=O)[C@H](CCCNC(=N)N)NC(=O)[C@@H](N)CSC1CC(=O)N(CCCCCCN2C(=O)CC(SC[C@H](N)C(=O)N[C@@H](CCCNC(=N)N)C(=O)N3CCC[C@H]3C(=O)N3C[C@H](O)C[C@H]3C(=O)NCC(=O)N[C@@H](Cc3ccccc3)C(=O)N[C@@H](CO)C(=O)N[C@H](Cc3ccccc3)C(=O)N[C@@H](CC(C)C)C(=O)N[C@@H](CCCNC(=N)N)C(=O)O)C2=O)C1=O)C(=O)N[C@@H](CCCNC(=N)N)C(=O)O` (stereo partly shown) [CP-0152] (HELM PEPTIDE1{C.R.P.[Hyp].G.F.S.[dF].L.R}|PEPTIDE2{C.R.P.[Hyp].G.F.S.[dF].L.R}|CHEM1{[O=C1CC([*:1])C(=O)N1CCCCCCN1C(=O)CC([*:2])C1=O]}$PEPTIDE1,CHEM1,1:R3-1:R1|PEPTIDE2,CHEM1,1:R3-1:R2$$$V2.0) the Kb [1] was ~316 nM, the “% REC DIMER” value ([2]; Table C, rat uterus) was 50% and the Kb [2, 4] was 12.6 nM.

For `CC(C)C[C@H](NC(=O)[C@@H](Cc1ccccc1)NC(=O)[C@H](CO)NC(=O)[C@H](Cc1ccccc1)NC(=O)CNC(=O)[C@@H]1C[C@@H](O)CN1C(=O)[C@@H]1CCCN1C(=O)[C@H](CSC1CC(=O)N(CCCCCCN2C(=O)CC(SC[C@H](NC(=O)[C@H](N)CCCNC(=N)N)C(=O)N3CCC[C@H]3C(=O)N3C[C@H](O)C[C@H]3C(=O)NCC(=O)N[C@@H](Cc3ccccc3)C(=O)N[C@@H](CO)C(=O)N[C@H](Cc3ccccc3)C(=O)N[C@@H](CC(C)C)C(=O)N[C@@H](CCCNC(=N)N)C(=O)O)C2=O)C1=O)NC(=O)[C@H](N)CCCNC(=N)N)C(=O)N[C@@H](CCCNC(=N)N)C(=O)O` (stereo partly shown) [CP-0153] (HELM PEPTIDE1{[dR].C.P.[Hyp].G.F.S.[dF].L.R}|PEPTIDE2{[dR].C.P.[Hyp].G.F.S.[dF].L.R}|CHEM1{[O=C1CC([*:1])C(=O)N1CCCCCCN1C(=O)CC([*:2])C1=O]}$PEPTIDE1,CHEM1,2:R3-1:R1|PEPTIDE2,CHEM1,2:R3-1:R2$$$V2.0), the Kb [1] was ~20 nM, the “% REC DIMER” value ([2]; Table C, rat uterus) was 100% and the Kb [2, 4] was 20 nM.

With `CC(C)C[C@H](NC(=O)[C@@H](Cc1ccccc1)NC(=O)[C@H](CO)NC(=O)[C@H](Cc1ccccc1)NC(=O)CNC(=O)[C@@H]1C[C@@H](O)CN1C(=O)[C@H](CSC1CC(=O)N(CCCCCCN2C(=O)CC(SC[C@H](NC(=O)[C@H](CCCNC(=N)N)NC(=O)[C@H](N)CCCNC(=N)N)C(=O)N3C[C@H](O)C[C@H]3C(=O)NCC(=O)N[C@@H](Cc3ccccc3)C(=O)N[C@@H](CO)C(=O)N[C@H](Cc3ccccc3)C(=O)N[C@@H](CC(C)C)C(=O)N[C@@H](CCCNC(=N)N)C(=O)O)C2=O)C1=O)NC(=O)[C@H](CCCNC(=N)N)NC(=O)[C@H](N)CCCNC(=N)N)C(=O)N[C@@H](CCCNC(=N)N)C(=O)O` (stereo partly shown) [CP-0154] (HELM PEPTIDE1{[dR].R.C.[Hyp].G.F.S.[dF].L.R}|PEPTIDE2{[dR].R.C.[Hyp].G.F.S.[dF].L.R}|CHEM1{[O=C1CC([*:1])C(=O)N1CCCCCCN1C(=O)CC([*:2])C1=O]}$PEPTIDE1,CHEM1,3:R3-1:R1|PEPTIDE2,CHEM1,3:R3-1:R2$$$V2.0) the Kb [1] was ~25.1 nM, the “% REC DIMER” value ([2]; Table C, rat uterus) was 90% and the Kb [2, 4] was 63.1 nM.

For `CC(C)C[C@H](NC(=O)[C@@H](Cc1ccccc1)NC(=O)[C@H](CO)NC(=O)[C@H](Cc1ccccc1)NC(=O)CNC(=O)[C@H](CSC1CC(=O)N(CCCCCCN2C(=O)CC(SC[C@H](NC(=O)[C@@H]3CCCN3C(=O)[C@H](CCCNC(=N)N)NC(=O)[C@H](N)CCCNC(=N)N)C(=O)NCC(=O)N[C@@H](Cc3ccccc3)C(=O)N[C@@H](CO)C(=O)N[C@H](Cc3ccccc3)C(=O)N[C@@H](CC(C)C)C(=O)N[C@@H](CCCNC(=N)N)C(=O)O)C2=O)C1=O)NC(=O)[C@@H]1CCCN1C(=O)[C@H](CCCNC(=N)N)NC(=O)[C@H](N)CCCNC(=N)N)C(=O)N[C@@H](CCCNC(=N)N)C(=O)O` (stereo partly shown) [CP-0155] (HELM PEPTIDE1{[dR].R.P.C.G.F.S.[dF].L.R}|PEPTIDE2{[dR].R.P.C.G.F.S.[dF].L.R}|CHEM1{[O=C1CC([*:1])C(=O)N1CCCCCCN1C(=O)CC([*:2])C1=O]}$PEPTIDE1,CHEM1,4:R3-1:R1|PEPTIDE2,CHEM1,4:R3-1:R2$$$V2.0), the Kb [1] was ~79.4 nM, the “% REC DIMER” value ([2]; Table C, rat uterus) was 100% and the Kb [2, 4] was 631 nM.
